Reference: US20260092074A1, “Annelated Pyridines as Steroidogenesis Inhibitors, Preparation Method and Use Thereof” (Guangzhou Vinnocent Pharmaceutical Limited, priority 2022, published 2026)

Assays:
human CYP11B1 = biological target: T1, human CYP11B1 (Homo sapiens, UniProt P15538); assay: Inhibition of hCYP11B1 in transfected V79 cells; format: cell-based; conditions: hamster V79 cells expressing human CYP11B1; substrate 11-deoxycortisol 200 nM
T1 construct: expressed in transfected cells
T1 sequence (P15538 25-503): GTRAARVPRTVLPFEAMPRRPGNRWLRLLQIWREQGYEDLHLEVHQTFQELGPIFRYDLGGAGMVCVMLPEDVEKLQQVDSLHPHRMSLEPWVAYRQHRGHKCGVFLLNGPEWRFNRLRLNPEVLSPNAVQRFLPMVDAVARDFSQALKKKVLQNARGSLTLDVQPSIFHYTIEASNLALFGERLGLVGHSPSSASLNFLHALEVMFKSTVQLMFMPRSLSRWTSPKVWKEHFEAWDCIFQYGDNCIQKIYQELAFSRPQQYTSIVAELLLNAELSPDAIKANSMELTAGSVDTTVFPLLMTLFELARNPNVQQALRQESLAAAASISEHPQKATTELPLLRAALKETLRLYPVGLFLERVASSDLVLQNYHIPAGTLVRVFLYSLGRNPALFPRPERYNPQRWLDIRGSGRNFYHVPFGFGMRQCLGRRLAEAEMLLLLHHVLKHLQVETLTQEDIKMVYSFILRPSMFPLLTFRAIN
Method in brief: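 Reactions started with 200 nM 11-deoxycortisol, ran for 30 min and were stopped with ethyl acetate, after a 2 h compound preincubation. The host was stably transfected V79 hamster cells carrying human CYP11B1 plus rat P450 reductase. Percent inhibition, from LC-MS/MS or HPLC (260 nm) quantitation of substrate and product, gave the IC50.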

human CYP11B2 = biological target: T2, human CYP11B2 (Homo sapiens, UniProt P19099); assay: Inhibition of hCYP11B2 in transfected V79 cells; format: cell-based; conditions: hamster V79 cells expressing human CYP11B2; substrate 11-deoxycorticosterone 200 nM
T2 construct: expressed in transfected cells
T2 sequence (P19099 25-503): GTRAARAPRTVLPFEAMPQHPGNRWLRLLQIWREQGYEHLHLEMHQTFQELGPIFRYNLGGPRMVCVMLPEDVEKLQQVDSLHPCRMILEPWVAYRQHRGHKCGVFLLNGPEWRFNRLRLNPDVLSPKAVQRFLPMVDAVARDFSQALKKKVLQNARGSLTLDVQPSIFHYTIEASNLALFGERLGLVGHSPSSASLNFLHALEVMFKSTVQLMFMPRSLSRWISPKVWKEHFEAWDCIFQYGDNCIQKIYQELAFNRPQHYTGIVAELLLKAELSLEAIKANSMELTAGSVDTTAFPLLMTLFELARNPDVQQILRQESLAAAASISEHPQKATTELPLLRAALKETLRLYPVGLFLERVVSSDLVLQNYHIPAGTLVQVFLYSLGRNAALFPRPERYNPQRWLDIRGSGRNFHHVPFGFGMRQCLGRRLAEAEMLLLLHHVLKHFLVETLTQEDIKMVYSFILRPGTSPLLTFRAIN
Method in brief: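 The substrate (200 nM, 30 min) was added after a 2 hour compound pre-incubation in lentivirus-transduced V79 cells stably expressing human CYP11B2 plus rat NADPH-P450 reductase.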

SMILES | IC50 (human CYP11B1) [nM] | IC50 (human CYP11B2) [nM]
O=C1Cc2cc(-c3cncc4c3OCCN4C(=O)C3CN(Cc4cccc(F)c4)C3)ccc2N1 [O89, 5-(4-(1-(3-Fluorobenzyl)azetidine-3-carbonyl)-3,4-dihydro-2H-pyrido[4,3-b][1,4]oxazin-8-yl)indolin-2-one] | 2550 | 15.6
COc1ccc(S(=O)(=O)N2CCSc3c(-c4cccs4)cncc32)cc1 [S37, 4-((4-Methoxyphenyl)sulfonyl)-8-(thiophen-2-yl)-3,4-dihydro-2H-pyrido[4,3-b][1,4]thiazine] | 84 | 6
N#Cc1ccc(-c2cncc3c2ccn3S(=O)(=O)c2cccc(Cl)c2)cc1 [E11, 4-(1-((3-Chlorophenyl)sulfonyl)-1H-pyrrolo[2,3-c]pyridin-4-yl)benzonitrile] | 0.2 | 0.1
O=C(C1CN(Cc2cccc(F)c2)C1)N1CCOc2c(-c3cc4ccc(Cl)cc4[nH]3)cncc21 [O91, (8-(6-Chloro-1H-indol-2-yl)-2,3-dihydro-4H-pyrido[4,3-b][1,4]oxazin-4-yl)(1-(3-fluorobenzyl)azetidin-3-yl)methanone] | 4160 | 92
O=C(c1ccccc1F)N1CCc2c(-c3cccc(F)c3)cncc21 [C52, (2-fluorophenyl)(4-(3-fluorophenyl)-2,3-dihydro-1H-pyrrolo[2,3-c]pyridin-1-yl)methanone] | 891 | 44
COc1ccc(C(=O)N2CC(S(=O)(=O)N3CCSc4c(-c5ccc(C#N)cc5)cncc43)C2)cc1 [S72, 4-(4-((1-(4-Methoxybenzoyl)azetidin-3-yl)sulfonyl)-3,4-dihydro-2H-pyrido[4,3-b][1,4]thiazin-8-yl)benzonitrile] | 23 | 2.1
COc1cccc(C(=O)N2CCc3c(C4=CCN(C#N)CC4)cncc32)c1 [C82, 4-(1-(3-Methoxybenzoyl)-2,3-dihydro-1H-pyrrolo[2,3-c]pyridin-4-yl)-3,6-dihydropyridine-1 (2H)-carbonitrile] | 537 | 3
N#Cc1ccc(-c2cncc3c2SCCN3S(=O)(=O)c2cccc(F)c2)cc1 [S9, 4-(4-((3-Fluorophenyl)sulfonyl)-3,4-dihydro-2H-pyrido[4,3-b][1,4]thiazin-8-yl)benzonitrile] | 0.7 | 0.2
N#Cc1ccc(-c2cncc3c2SCCN3C(=O)c2cccnc2)cc1 [S7, 4-(4-Nicotinoyl-3,4-dihydro-2H-pyrido[4,3-b][1,4]thiazin-8-yl)benzonitrile] | 4390 | 88
N#Cc1ccc(-c2cncc3c2CCN3C(=O)c2ccccc2)cc1 [C41, 4-(1-Benzoyl-2,3-dihydro-1H-pyrrolo[2,3-c]pyridin-4-yl)benzonitrile] | 353 | 40
N#Cc1ccc(-c2cncc3c2OCCN3C(=O)C2CN(S(=O)(=O)c3cccc(F)c3)C2)cc1 [O61, 4-(4-(1-((3-Fluorophenyl)sulfonyl)azetidine-3-carbonyl)-3,4-dihydro-2H-pyrido[4,3-b][1,4]oxazin-8-yl)benzonitrile] | 3.7 | 0.51
N#Cc1ccc(-c2cncc3c2SCCN3S(=O)(=O)C2CN(C(=O)c3cccc(F)c3)C2)cc1 [S69, 4-(4-((1-(3-Fluorobenzoyl)azetidin-3-yl)sulfonyl)-3,4-dihydro-2H-pyrido[4,3-b][1,4]thiazin-8-yl)benzonitrile] | 73 | 1.3
Cc1ccccc1CC(=O)N1CCc2c(-c3ccc(C#N)cc3)cncc21 [C64, 4-(1-(2-(o-Tolyl)acetyl)-2,3-dihydro-1H-pyrrolo[2,3-c]pyridin-4-yl)benzonitrile] | 258 | 5.3
N#Cc1ccc(-c2cncc3c2SCCN3S(=O)(=O)c2ccc([N+](=O)[O-])cc2)cc1 [S19, 4-(4-((4-Nitrophenyl)sulfonyl)-3,4-dihydro-2H-pyrido[4,3-b][1,4]thiazin-8-yl)benzonitrile] | 1.2 | 0.1
N#Cc1ccc(-c2cncc3c2OCCN3C(=O)c2ccc([N+](=O)[O-])cc2)cc1 [O26, 4-(4-(4-Nitrobenzoyl)-3,4-dihydro-2H-pyrido[4,3-b][1,4]oxazin-8-yl)benzonitrile] | 1450 | 22.4
N#Cc1ccc(-c2cncc3c2SCCN3S(=O)(=O)c2cccs2)cc1 [S24, 4-(4-(Thiophen-2-ylsulfonyl)-3,4-dihydro-2H-pyrido[4,3-b][1,4]thiazin-8-yl)benzonitrile] | 1.1 | 0.13
N#Cc1ccc2oc(-c3cncc4c3OCCN4C(=O)C3CN(Cc4cccc(F)c4)C3)cc2c1 [O96, 2-(4-(1-(3-Fluorobenzyl)azetidine-3-carbonyl)-3,4-dihydro-2H-pyrido[4,3-b][1,4]oxazin-8-yl)benzofuran-5-carbonitrile] | 1340 | 5.2
N#Cc1ccc2[nH]c(-c3cncc4c3OCCN4C(=O)C3CN(Cc4cccc(F)c4)C3)cc2c1 [O94, 2-(4-(1-(3-Fluorobenzyl)azetidine-3-carbonyl)-3,4-dihydro-2H-pyrido[4,3-b][1,4]oxazin-8-yl)-1H-indole-5-carbonitrile] | 381 | 4.7
O=C1COc2ccc(S(=O)(=O)N3CCSc4c(-c5cc6cc(Cl)ccc6o5)cncc43)cc2N1 [S59, 6-((8-(5-Chlorobenzofuran-2-yl)-2,3-dihydro-4H-pyrido[4,3-b][1,4]thiazin-4-yl)sulfonyl)-2H-benzo[b][1,4]oxazin-3 (4H)-one] | 48 | 0.5
COc1ccc(C(=O)N2CCSc3c(-c4cc5cc(C#N)ccc5o4)cncc32)cc1 [S98, 2-(4-(4-Methoxybenzoyl)-3,4-dihydro-2H-pyrido[4,3-b][1,4]thiazin-8-yl)benzofuran-5-carbonitrile] | 1160 | 11
COc1cccc(C(=O)N2CCc3c(-c4ccc(C#N)cc4)cncc32)c1 [C26, 4-(1-(3-Methoxybenzoyl)-2,3-dihydro-1H-pyrrolo[2,3-c]pyridin-4-yl)benzonitrile] | 356 | 2.3
N#CN1CCC(S(=O)(=O)N2CCSc3c(-c4cc5cc(Cl)ccc5o4)cncc32)CC1 [S63, 4-((8-(5-Chlorobenzofuran-2-yl)-2,3-dihydro-4H-pyrido[4,3-b][1,4]thiazin-4-yl)sulfonyl) piperidine-1-carbonitrile] | 792 | 10
N#Cc1ccc2cc(-c3cncc4c3OCCN4C(=O)C3CN(Cc4cccc(F)c4)C3)[nH]c2c1 [O92, 2-(4-(1-(3-Fluorobenzyl)azetidine-3-carbonyl)-3,4-dihydro-2H-pyrido[4,3-b][1,4]oxazin-8-yl)-1H-indole-6-carbonitrile] | 4440 | 28.4
N#Cc1ccc(-c2cncc3c2ccn3C(=O)c2ccccc2I)cc1 [E21, 4-(1-(2-iodobenzoyl)-1H-pyrrolo[2,3-c]pyridin-4-yl)benzonitrile] | 5 | 4
N#Cc1ccc(-c2cncc3c2OCCN3S(=O)(=O)C2CN(S(=O)(=O)c3ccc(C#N)cc3)C2)cc1 [O114, 4-((3-((8-(4-Cyanophenyl)-2,3-dihydro-4H-pyrido[4,3-b][1,4]oxazin-4-yl)sulfonyl)azetidin-1-yl)sulfonyl)benzonitrile] | 69 | 7
N#Cc1ccc(-c2cncc3c2CCN3C(=O)c2ccccc2[N+](=O)[O-])cc1 [C35, 4-(1-(2-Nitrobenzoyl)-2,3-dihydro-1H-pyrrolo[2,3-c]pyridin-4-yl)benzonitrile] | 459 | 31
N#Cc1ccc(-c2cncc3c2OCCN3S(=O)(=O)C2CN(c3cccc(F)c3)C2)cc1 [O126, 4-(4-((1-(3-Fluorophenyl)azetidin-3-yl)sulfonyl)-3,4-dihydro-2H-pyrido[4,3-b][1,4]oxazin-8-yl)benzonitrile] | 126 | 3
N#Cc1ccc(-c2cncc3c2ccn3S(=O)(=O)c2cccc(C#N)c2)cc1 [E10, 3-((4-(4-Cyanophenyl)-1H-pyrrolo[2,3-c]pyridin-1-yl)sulfonyl)benzonitrile] | 0.3 | 0.6
N#Cc1ccc(-c2cncc3c2SCCN3S(=O)(=O)c2cccc3cccnc23)cc1 [S26, 4-(4-(Quinolin-8-ylsulfonyl)-3,4-dihydro-2H-pyrido[4,3-b][1,4]thiazin-8-yl)benzonitrile] | 28 | 0.86
